Earlier results, collected in patent US6087087A, “Treatment of hemoglobin with nitric oxide” (Yonetani; Takashi, priority 1998, dated 2000).
Like-named read-outs stand apart in the source and are kept apart here.

Legend:
Hb in rats = conditions: nitroglycerin-induced
blood of the rat = conditions: rat treated with nitroglycerin

| Compound | α-nitrosylHb formed, of the total heme of Hb (Hb in rats) | right shift of the O2 binding curve of blood (blood of the rat) | affinity of NO for Hb relative to CO (Hb (hemoglobin)) | affinity of NO for Hb relative to CO (Hb (hemoglobin); listed as nitric oxide) |
| --- | --- | --- | --- | --- |
| O=[N+]([O-])OCC(CO[N+](=O)[O-])O[N+](=O)[O-] [nitroglycerin] | less than 2% | approximately 10 torr |  |  |
| nitric oxide [NO] |  |  | > 10^3 fold | more than a thousand-fold higher affinity |
